Source: the supplement of paper PMC10307832

What was measured:
Test in all cases: relative viability (nuclei count vs DMSO), 5 days (fraction); higher = more cells survive
MIM1 = compound: CC1=CSC(=NC2CCCCC2)N1/N=C/C3=C(C(=C(C=C3)O)O)O [MIM1]
How it was run: (§1)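 On vehicle-anchored 1536-well plates, lung cancer cell lines held overnight at 37 °C were pinned with five library-drug doses (not always all listed) spaced by √10. With no medium change over 5 days, they were then fixed, permeabilised and Hoechst-stained in one step and imaged at 4×. MetaXpress counted nuclei, and viability is the median across plates of treated-well over vehicle-well nuclei. Acceptance needed control CV below 25% and at least one doubling.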

Lenalidomide = compound: Nc1cccc2c1CN(C1CCC(=O)NC1=O)C2=O [Lenalidomide]
How it was run: as §1

Nilotinib = compound: Cc1cn(-c2cc(NC(=O)c3ccc(C)c(Nc4nccc(-c5cccnc5)n4)c3)cc(C(F)(F)F)c2)cn1 [Nilotinib]
How it was run: as §1

Luminespib = compound: CCNC(=O)c1noc(-c2cc(C(C)C)c(O)cc2O)c1-c1ccc(CN2CCOCC2)cc1 [Luminespib]
How it was run: as §1

Saracatinib = compound: CN1CCN(CCOc2cc(OC3CCOCC3)c3c(Nc4c(Cl)ccc5c4OCO5)ncnc3c2)CC1 [Saracatinib]
How it was run: as §1

Row | Cell Line | relative viability (MIM1; 0.2 µM) | relative viability (MIM1; 0.6325 µM) | relative viability (MIM1; 2 µM) | relative viability (MIM1; 6.325 µM) | relative viability (MIM1; 20 µM) | relative viability (Lenalidomide; 0.253 µM) | relative viability (Lenalidomide; 0.8 µM) | relative viability (Lenalidomide; 2.53 µM) | relative viability (Lenalidomide; 8 µM) | relative viability (Nilotinib; 0.001 µM) | relative viability (Nilotinib; 0.003162 µM) | relative viability (Nilotinib; 0.01 µM) | relative viability (Nilotinib; 0.03162 µM) | relative viability (Nilotinib; 0.1 µM) | relative viability (Luminespib; 0.002 µM) | relative viability (Luminespib; 0.006325 µM) | relative viability (Luminespib; 0.01 µM, anchor plate) | relative viability (Luminespib; 0.02 µM) | relative viability (Luminespib; 0.06325 µM) | relative viability (Luminespib; 0.2 µM) | relative viability (Saracatinib; 0.02 µM) | relative viability (Saracatinib; 0.2 µM) | relative viability (Saracatinib; 0.6325 µM) | relative viability (Saracatinib; 2 µM)
1 | NCI-H661 | 0.991 | 1.01 | 0.941 | 0.746 | 0.406 | 0.917 | 0.934 | 1.03 | 0.958 | 0.951 | 1.06 | 1.09 | 0.949 | 0.948 | 1.01 | 0.969 | 0.916 | 0.778 | 0.754 | 0.325 | 1.02 | 0.977 | 0.926 | 0.669
2 | NCI-H727 | 0.833 | 0.823 | 0.878 | 0.723 | 0.452 | 0.868 | 0.927 | 0.908 | 0.857 | 0.787 |  | 0.938 | 0.694 | 0.614 | 0.95 | 0.738 | 0.369 | 0.64 | 0.308 | 0.287 | 0.874 | 0.765 | 0.863 | 0.612
3 | NCI-H838 | 0.967 | 0.959 | 0.786 | 0.78 | 0.372 | 0.969 | 0.879 | 1.07 | 0.823 | 0.924 | 1.02 | 1.06 | 0.863 | 0.992 | 0.983 | 0.92 | 0.298 | 0.554 | 0.177 | 0.186 | 0.96 | 0.897 | 0.898 | 0.772
4 | NCI-H1299 | 0.983 | 0.992 | 0.994 | 1.01 | 0.776 | 1.02 | 0.97 | 1.03 | 1.05 | 0.939 | 1.08 | 1.15 | 1.02 | 0.966 | 1.03 | 0.95 |  | 1.04 | 0.942 | 0.217 | 1.02 | 0.948 | 1.05 | 1
5 | NCI-H1355 | 1 | 0.824 | 1.07 | 0.816 | 0.595 | 1 | 0.746 | 1.02 | 0.721 | 0.96 | 1.21 | 1.13 | 1.01 | 0.428 | 0.953 | 0.956 | 0.746 | 0.52 | 0.67 | 0.166 | 1.02 | 0.972 | 1.03 | 0.975
6 | NCI-H1395 | 0.961 | 0.791 | 0.873 | 0.675 | 0.345 | 0.997 |  | 1.02 | 0.846 | 0.957 | 0.7 | 0.874 | 0.803 | 0.542 | 1.07 | 0.861 | 0.764 | 0.622 | 0.362 | 0.323 | 0.994 | 0.828 | 0.91 | 0.799
7 | NCI-H1437 | 0.956 | 0.927 | 1 | 0.714 | 0.273 | 1.02 | 0.939 | 1.05 | 1.01 | 0.955 | 0.988 | 1.12 | 0.868 | 0.958 | 0.977 | 0.943 | 1.12 | 1.02 | 0.743 | 0.26 | 1.02 | 1.02 | 1.04 | 0.971
8 | NCI-H1563 | 1.09 | 1.02 | 0.993 | 0.903 | 0.542 | 0.932 | 1.01 | 1.11 | 0.846 | 0.956 | 1.03 | 0.971 | 0.869 | 1.02 | 0.984 | 0.985 | 0.508 | 0.794 | 0.503 | 0.49 | 1.04 | 0.894 | 0.804 | 0.728
9 | NCI-H1623 | 0.922 | 0.965 | 1.03 | 0.945 | 0.46 | 1.08 | 0.932 | 1.05 | 0.869 | 1.1 | 0.885 | 1.08 | 0.889 | 0.927 | 1.02 | 0.959 | 0.529 | 0.712 | 0.716 | 0.302 | 0.993 | 0.852 | 1.11 | 0.67
10 | NCI-H1648 | 1.01 | 0.929 | 0.989 | 0.635 | 0.283 | 0.93 | 0.732 | 1.29 | 0.705 | 0.79 | 0.738 | 0.829 | 0.605 | 0.757 | 0.671 | 0.811 |  | 0.837 | 0.742 | 0.413 | 0.895 | 0.553 | 1.52 | 0.727
11 | NCI-H1650 | 0.908 | 0.949 | 0.654 | 0.189 | 0.148 | 0.828 | 0.857 | 1.23 | 1.12 | 0.912 | 1.22 | 1.12 | 0.931 | 0.598 | 1.02 | 0.823 | 0.199 | 0.228 | 0.122 | 0.138 | 0.814 | 0.689 | 0.737 | 0.581
12 | NCI-H1651 | 0.983 | 0.959 | 0.932 | 0.896 | 0.799 | 0.972 | 0.984 | 1.14 | 0.904 | 0.94 | 1.09 | 1.14 | 0.905 | 0.676 | 0.979 | 0.934 | 0.86 | 0.818 | 0.738 | 0.351 | 1 | 0.887 | 1.07 | 0.937
13 | NCI-H1666 | 1.03 | 0.966 | 0.945 | 0.802 | 0.564 | 1.02 | 0.745 | 1.1 | 1.05 | 0.934 | 0.989 | 1.06 | 0.918 | 1.01 | 1.05 | 0.937 | 1.03 | 1.01 | 0.956 | 0.838 | 1.02 | 0.942 | 1.27 | 1.17
14 | NCI-H1703 | 0.897 | 1 | 0.878 | 0.205 | 0.133 | 0.991 | 0.923 | 1.01 | 0.904 | 0.795 | 0.684 | 0.538 | 0.286 |  | 1.12 | 0.899 |  | 0.708 | 0.134 | 0.14 | 0.93 | 0.772 | 0.448 | 0.326
